What was measured:
CD8+ T cells = assay: In vitro T-cell priming assay with aAPCs loaded with peptide/MHC complexes and anti-CD28 antibody, pMHC multimer readout; assay type: cell-based, human; conditions: for wells (in vitro immunogenicity, positive wells): CD8+ T cells of healthy HLA-A*02 donors, Table 10A; for Wells positive [%]: HLA-A*02 restricted peptides, CD8+ T cells of healthy donors, Table 10B
Excerpt: In order to obtain information regarding the immunogenicity of the TUMAPs of the present invention, the inventors performed investigations using an in vitro T-cell priming assay based on repeated stimulations of CD8+ T cells with artificial antigen presenting cells (aAPCs) loaded with peptide/MHC complexes and anti-CD28 antibody.
In order to perform in vitro stimulations by artificial antigen presenting cells loaded with peptide-MHC complex (pMHC) and anti-CD28 antibody, the inventors first isolated CD8+ T cells from fresh HLA-A*02 leukapheresis products via positive selection using CD8 microbeads (Miltenyi Biotec, Bergisch-Gladbach, Germany) of healthy donors obtained from the University clinics Mannheim, Germany, after informed consent.
PBMCs and isolated CD8+ lymphocytes were incubated in T-cell medium (TCM) until use consisting of RPMI-Glutamax (Invitrogen, Karlsruhe, Germany) supplemented with 10% heat inactivated human AB serum (PAN-Biotech, Aidenbach, Germany), 100 U/ml Penicillin/100 μg/ml Streptomycin (Cambrex, Cologne, Germany), 1 mM sodium pyruvate (CC Pro, Oberdorla, Germany), 20 μg/ml Gentamycin (Cambrex). 2.5 ng/ml IL-7 (PromoCell, Heidelberg, Germany) and 10 U/ml IL-2 (Novartis Pharma, Nürnberg, Germany) were also added to the TCM at this step.
Generation of pMHC/anti-CD28 coated beads, T-cell stimulations and readout was performed in a highly defined in vitro system using four different pMHC molecules per stimulation condition and 8 different pMHC molecules per readout condition.
The purified co-stimulatory mouse IgG2a anti human CD28 Ab9.3 (Jung et al., 1987) was chemically biotinylated using Sulfo-N-hydroxysuccinimidobiotin as recommended by the manufacturer (Perbio, Bonn, Germany). Beads used were 5.6 μm diameter streptavidin coated polystyrene particles (Bangs Laboratories, Ill., USA).
800.000 beads/200 μl were coated in 96-well plates in the presence of 4×12.5 ng different biotin-pMHC, washed and 600 ng biotin anti-CD28 were added subsequently in a volume of 200 μl. Stimulations were initiated in 96-well plates by co-incubating […] CD8+ T cells with 2×10^5 washed coated beads in 200 μl TCM supplemented with 5 ng/ml IL-12 (PromoCell) for 3 days at 37° C. Half of the medium was then exchanged by fresh TCM supplemented with 80 Uml IL-2 and incubating was continued for 4 days at 37° C. This stimulation cycle was performed for a total of three times. For the pMHC multimer readout using 8 different pMHC molecules per condition, a two-dimensional combinatorial coding approach was used as previously described (Andersen et al., 2012) with minor modifications encompassing coupling to 5 different fluorochromes. Finally, multimeric analyses were performed by staining the cells with Live/dead near IR dye (Invitrogen, Karlsruhe, Germany), CD8-FITC antibody clone SK1 (BD, Heidelberg, Germany) and fluorescent pMHC multimers. For analysis, a BD LSRII SORP cytometer equipped with appropriate lasers and filters was used. Peptide specific cells were calculated as percentage of total CD8+ cells. Evaluation of multimeric analysis was done using the FlowJo software (Tree Star, Oreg., USA). In vitro priming of specific multimer+ CD8+ lymphocytes was detected by comparing to negative control stimulations.

HLA-A*02:01 = HLA-A*02:01 (Homo sapiens, UniProt P04439, D140Y/D185E/D98H/E176V/E277Q/G131W/G231S/I119V/I121R/I166T/I218V/L300P/L318F/N151K/N90K/P208A/P217A/Q86G/Q94H/R138H/R169H/T345S); assay: MHC binding assay: UV-ligand exchange with ELISA detection of β2m of stabilized MHC complexes; conditions: binding to HLA-A*02:01
Excerpt: Candidate peptides for T cell based therapies according to the present invention were further tested for their MHC binding capacity (affinity). The individual peptide-MHC complexes were produced by UV-ligand exchange, where a UV-sensitive peptide is cleaved upon UV-irradiation, and exchanged with the peptide of interest as analyzed. Only peptide candidates that can effectively bind and stabilize the peptide-receptive MHC molecules prevent dissociation of the MHC complexes. To determine the yield of the exchange reaction, an ELISA was performed based on the detection of the light chain (β2m) of stabilized MHC complexes. The assay was performed as generally described in Rodenko et al. (Rodenko et al., 2006).
96 well MAXISorp plates (NUNC) were coated over night with 2 μg/ml streptavidin in PBS at room temperature, washed 4× and blocked for 1 h at 37° C. in 2% BSA containing blocking buffer. Refolded HLA-A*02:01/MLA-001 monomers served as standards, covering the range of 15-500 ng/ml. Peptide-MHC monomers of the UV-exchange reaction were diluted 100 fold in blocking buffer. Samples were incubated for 1 h at 37° C., washed four times, incubated with 2 μg/ml HRP conjugated anti-β2m for 1 h at 37° C., washed again and detected with TMB solution that is stopped with […]. Absorption was measured at 450 nm. Candidate peptides that show a high exchange yield (preferably higher than 50%, most preferred higher than 75%) are generally preferred for a generation and production of antibodies or fragments thereof, and/or T cell receptors or fragments thereof, as they show sufficient avidity to the MHC molecules and prevent dissociation of the MHC complexes.

Row | Substance | Peptide exchange (MHC class I binding score, peptide exchange yield) (HLA-A*02:01) | wells (in vitro immunogenicity, positive wells) (CD8+ T cells) | Wells positive [%] (CD8+ T cells)
1 | 129 (RVADYIVKV; listed as Homo sapiens) [compound 129] | – | + (<20% = +) | –
2 | 130 (SLYDNQITTV; listed as Homo sapiens) [compound 130] | – | ++ (20%-49% = ++) | –
3 | 132 (NLLAEIHGV; listed as Homo sapiens) [compound 132] | – | + (<20% = +) | –
4 | 128 (SLAPAGVIRV; listed as Homo sapiens) [compound 128] | – | + (<20% = +) | –
5 | 2 (VMFNFPDQATV; listed as Homo sapiens) [compound 2] | +++ (≥50 = +++) | – | + (<20% = +)

Continued, in another order:

Row | Peptide exchange (MHC class I binding score, peptide exchange yield) (HLA-A*02:01) | Substance | wells (in vitro immunogenicity, positive wells) (CD8+ T cells) | Wells positive [%] (CD8+ T cells)
6 | +++ (≥50 = +++) | 110 (GLTETGLYRI; listed as Homo sapiens) [compound 110] | – | +++ (50%-69% = +++)
7 | +++ (≥50 = +++) | 82 (ALSSVIKEL; listed as Homo sapiens) [compound 82] | – | + (<20% = +)
8 | +++ (≥50 = +++) | 39 (GLDPTQFRV; listed as Homo sapiens) [compound 39] | – | ++++ (≥70 = ++++)
9 | ++++ (≥75% = ++++) | 6 (SIMDYVVFV; listed as Homo sapiens) [compound 6] | – | + (<20% = +)
10 | +++ (≥50 = +++) | 80 (ILMDPSPEYA; listed as Homo sapiens) [compound 80] | – | +++ (50%-69% = +++)
11 | +++ (≥50 = +++) | 11 (KLFAIPILL; listed as Homo sapiens) [compound 11] | – | ++++ (≥70 = ++++)
12 | +++ (≥50 = +++) | 4 (GLLDPGMLVNI; listed as Homo sapiens) [compound 4] | – | ++ (20%-49% = ++)
